Several values for one entry are separate records, joined by “and”; a condition that tells them apart may be missing. Equal entries are not always repeated. Where two headings read alike, the source gives them in different places.
Assays:
[1] = molecular target: T1, GHS-R1a (Homo sapiens, UniProt Q92847); assay: Radioligand binding assay, displacement of [125I-His9]ghrelin(1-28); conditions: for IC50: GHS-R1a transfected HEK293 cells, [125I-His9]ghrelin(1-28) radioligand, determined in applicant's lab; for binding affinity with GHS-R1a, stated in words: radioligand binding assay
T1 construct: expressed in transfected cells; host or cells: HEK293
Experimental: The affinity for GHS-R1a was determined using a radioligand binding assay. […] The resulting suspension was incubated for 20 min with shaking (550 rpm). […] All binding assays were performed in triplicate.

[2] = molecular target: T1, GHS-R1a; conditions: cited from earlier work; for Ki: literature value, read-out: Ki values reported in the literature

T1 sequence (Q92847 whole entry): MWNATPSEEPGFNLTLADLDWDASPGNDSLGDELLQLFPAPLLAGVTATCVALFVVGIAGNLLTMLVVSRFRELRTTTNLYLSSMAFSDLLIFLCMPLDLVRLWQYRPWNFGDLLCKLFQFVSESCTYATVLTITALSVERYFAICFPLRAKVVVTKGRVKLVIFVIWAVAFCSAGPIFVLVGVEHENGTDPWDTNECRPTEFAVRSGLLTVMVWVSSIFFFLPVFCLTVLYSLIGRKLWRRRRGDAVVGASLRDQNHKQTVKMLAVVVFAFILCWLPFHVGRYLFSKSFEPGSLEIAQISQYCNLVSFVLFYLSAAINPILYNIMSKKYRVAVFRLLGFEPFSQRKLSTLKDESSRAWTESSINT

SMILES | IC50 [1] | further results
Cc1ccccc1-c1nc2ccc(Oc3ccc(F)cc3)cc2c(=O)n1C[C@H]1CCCNC1 [Compound 4a, (S)-6-(4-fluorophenoxy)-3-(piperidin-3-ylmethyl)-2-(o-tolyl)quinazolin-4(3H)-one, reference compound] | 5.6 nM | Ki [2]: 0.9 nM
Cc1ccccc1-c1nc2ccc(Oc3ccc(F)cn3)cc2c(=O)n1C[C@H]1CCCNC1 [Compound 4b, (S)-6-((5-fluoropyridin-2-yl)oxy)-3-(piperidin-3-ylmethyl)-2-(o-tolyl)quinazolin-4(3H)-one] | 52 nM | 
Cc1ccccc1-c1nc2ccc(Oc3ccc(F)nc3)cc2c(=O)n1C[C@H]1CCCNC1 [Compound 4c, (S)-6-((6-fluoropyridin-3-yl)oxy)-3-(piperidin-3-ylmethyl)-2-(o-tolyl)quinazolin-4(3H)-one] | 68.5 nM | 
Cc1ccccc1-c1nc2ccc(Oc3ccc(Oc4ccc(F)cn4)nc3)cc2c(=O)n1C[C@H]1CCCNC1 [Compound 4d, (S)-6-((6-((5-fluoropyridin-2-yl)oxy)pyridin-3-yl)oxy)-3-(piperidin-3-ylmethyl)-2-(o-tolyl)quinazolin-4(3H)-one] | 82.9 nM | 
Cc1ccccc1-c1nc2ccc(Oc3ccc4ncsc4c3)cc2c(=O)n1C[C@H]1CCCNC1 [Compound 4e, (S)-6-(benzo[d]thiazol-6-yloxy)-3-(piperidin-3-ylmethyl)-2-(o-tolyl)quinazolin-4(3H)-one] | 5.3 nM | 
CC(=O)N1CCN(c2ccc(Oc3ccc4nc(-c5ccccc5C)n(C[C@H]5CCCNC5)c(=O)c4c3)cc2)CC1 [Compound 4f, (S)-6-(4-(4-acetylpiperazin-1-yl)phenoxy)-3-(piperidin-3-ylmethyl)-2-(o-tolyl)quinazolin-4(3H)-one] | 587 nM | 
Cc1ccccc1-c1nc2ccc(Oc3ccc(F)cc3)cc2c(=O)n1C[C@H]1CCCN(CCF)C1 [Compound 5a, (S)-3-((1-(2-fluoroethyl)piperidin-3-yl)methyl)-6-(4-fluorophenoxy)-2-(o-tolyl)quinazolin-4(3H)-one] | 29.5 nM | 
Cc1ccccc1-c1nc2ccc(Oc3ccc(F)cn3)cc2c(=O)n1C[C@H]1CCCN(CCF)C1 [Compound 5b, (S)-3-((1-(2-fluoroethyl)piperidin-3-yl)methyl)-6-((5-fluoropyridin-2-yl)oxy)-2-(o-tolyl)quinazolin-4(3H)-one] | 20.6 nM | 
Cc1ccccc1-c1nc2ccc(Oc3ccc(F)nc3)cc2c(=O)n1C[C@H]1CCCN(CCF)C1 [Compound 5c, (S)-3-((1-(2-fluoroethyl)piperidin-3-yl)methyl)-6-((6-fluoropyridin-3-yl)oxy)-2-(o-tolyl)quinazolin-4(3H)-one] | 64.2 nM and 62.4 nM | 
Cc1ccccc1-c1nc2ccc(Oc3ccc(Oc4ccc(F)cn4)nc3)cc2c(=O)n1C[C@H]1CCCN(CCO)C1 [Compound 5d, (S)-6-((6-((5-fluoropyridin-2-yl)oxy)pyridin-3-yl)oxy)-3-((1-(2-hydroxyethyl)piperidin-3-yl)methyl)-2-(o-tolyl)quinazolin-4(3H)-one] | 65.2 nM | 
Cc1ccccc1-c1nc2ccc(Oc3ccc4ncsc4c3)cc2c(=O)n1C[C@H]1CCCN(CCF)C1 [Compound 5e, (S)-6-(benzo[d]thiazol-6-yloxy)-3-((1-(2-fluoroethyl)piperidin-3-yl)methyl)-2-(o-tolyl)quinazolin-4(3H)-one] | 9.3 nM | 
Cc1ccccc1-c1nc2ccc(Oc3ccc(F)cc3)cc2c(=O)n1C[C@H]1CCCN(C(C)C)C1 [Compound 5f, (S)-6-(4-fluorophenoxy)-3-((1-isopropylpiperidin-3-yl)methyl)-2-(o-tolyl)quinazolin-4(3H)-one, reference compound] | 3.7 nM | binding affinity with GHS-R1a, stated in words [1]: equivalent binding affinity with natural ghrelin; IC50 ([2]; literature value (Bayer work), read-out: IC50 reported for prior art compound): 0.9 nM; Ki [2]: 0.9 nM
Cc1ccccc1-c1nc2ccc(Oc3ccc4ncsc4c3)cc2c(=O)n1C[C@H]1CCCN(C(C)C)C1 [Compound 5g, (S)-6-(benzo[d]thiazol-6-yloxy)-3-((1-isopropylpiperidin-3-yl)methyl)-2-(o-tolyl)quinazolin-4(3H)-one] | 1.8 nM | binding affinity with GHS-R1a, stated in words [1]: equivalent binding affinity to natural ghrelin
Cc1ccccc1-c1nc2ccc(Oc3ccc4ncsc4c3)cc2c(=O)n1C[C@H]1CCCN(CCO)C1 [Compound 5i, (S)-6-(benzo[d]thiazol-6-yloxy)-3-((1-(2-hydroxyethyl)piperidin-3-yl)methyl)-2-(o-tolyl)quinazolin-4(3H)-one] | 0.4 nM | binding affinity with GHS-R1a, stated in words [1]: sub-nanomolar binding affinity
Cc1ccccc1-c1nc2ccc(Oc3ccc(F)cn3)cc2c(=O)n1C[C@H]1CCCN(C(=O)C(C)F)C1 (stereo partly drawn) [Compound 5j, 3-(((3S)-1-(2-fluoropropanoyl)piperidin-3-yl)methyl)-6-((5-fluoropyridin-2-yl)oxy)-2-(o-tolyl)quinazolin-4(3H)-one] | > 1000 nM | 
O=c1c2cc(Oc3ccc(F)cn3)ccc2nc(-c2ccccc2F)n1C[C@H]1CCCNC1 [Compound 9a, (S)-2-(2-fluorophenyl)-6-((5-fluoropyridin-2-yl)oxy)-3-(piperidin-3-ylmethyl)quinazolin-4(3H)-one] | 935 nM | 
O=c1c2cc(Oc3ccc4ncsc4c3)ccc2nc(-c2ccccc2F)n1C[C@H]1CCCNC1 [Compound 9b, (S)-6-(benzo[d]thiazol-6-yloxy)-2-(2-fluorophenyl)-3-(piperidin-3-ylmethyl)quinazolin-4(3H)-one] | 16 nM | 
CC(C)N1CCC[C@H](Cn2c(-c3ccccc3F)nc3ccc(Oc4ccc(F)cn4)cc3c2=O)C1 [Compound 10a, (S)-2-(2-fluorophenyl)-6-((5-fluoropyridin-2-yl)oxy)-3-((1-isopropylpiperidin-3-yl)methyl)quinazolin-4(3H)-one] | 70.5 nM | 
CC(C)N1CCC[C@H](Cn2c(-c3ccccc3F)nc3ccc(Oc4ccc5ncsc5c4)cc3c2=O)C1 [Compound 10b, (S)-6-(benzo[d]thiazol-6-yloxy)-2-(2-fluorophenyl)-3-((1-isopropylpiperidin-3-yl)methyl)quinazolin-4(3H)-one] | 0.02 nM | binding affinity with GHS-R1a, stated in words [1]: sub-nanomolar binding affinity
O=c1c2cc(Oc3ccc4ncsc4c3)ccc2nc(-c2ccccc2F)n1C[C@H]1CCCN(CCF)C1 [Compound 10c, (S)-6-(benzo[d]thiazol-6-yloxy)-3-((1-(2-fluoroethyl)piperidin-3-yl)methyl)-2-(2-fluorophenyl)quinazolin-4(3H)-one] | 8.1 nM | 
O=c1c2cc(Oc3ccc(F)cn3)ccc2nc(-c2ccc(OCCO)cc2F)n1C[C@H]1CCCNC1 [Compound 14a, (S)-2-(2-fluoro-4-(2-hydroxyethoxy)phenyl)-6-((5-fluoropyridin-2-yl)oxy)-3-(piperidin-3-ylmethyl)quinazolin-4(3H)-one] | 353 nM | 
O=c1c2cc(Oc3ccc(F)cc3)ccc2nc(-c2ccc(OCCO)cc2F)n1C[C@H]1CCCNC1 [Compound 14b, (S)-2-(2-fluoro-4-(2-hydroxyethoxy)phenyl)-6-(4-fluorophenoxy)-3-(piperidin-3-ylmethyl)quinazolin-4(3H)-one] | 19.8 nM | 
CC(C)N1CCC[C@H](Cn2c(-c3ccc(OCCO)cc3F)nc3ccc(Oc4ccc(F)cn4)cc3c2=O)C1 [Compound 15a, (S)-2-(2-fluoro-4-(2-hydroxyethoxy)phenyl)-6-((5-fluoropyridin-2-yl)oxy)-3-((1-isopropylpiperidin-3-yl)methyl)quinazolin-4(3H)-one] | 40.1 nM | 
CC(C)N1CCC[C@H](Cn2c(-c3ccc(OCCO)cc3F)nc3ccc(Oc4ccc(F)cc4)cc3c2=O)C1 [Compound 15b, (S)-2-(2-fluoro-4-(2-hydroxyethoxy)phenyl)-6-(4-fluorophenoxy)-3-((1-isopropylpiperidin-3-yl)methyl)quinazolin-4(3H)-one] | 2.3 nM | binding affinity with GHS-R1a, stated in words [1]: equivalent binding affinity to natural ghrelin
CC(C)N1CCC[C@H](Cn2c(-c3ccc(OCCF)cc3F)nc3ccc(Oc4ccc(F)cn4)cc3c2=O)C1 [Compound 17a, (S)-2-(2-fluoro-4-(2-fluoroethoxy)phenyl)-6-((5-fluoropyridin-2-yl)oxy)-3-((1-isopropylpiperidin-3-yl)methyl)quinazolin-4(3H)-one] | 17.6 nM | 
CC(C)N1CCC[C@H](Cn2c(-c3ccc(OCCF)cc3F)nc3ccc(Oc4ccc(F)cc4)cc3c2=O)C1 [Compound 17b, (S)-2-(2-fluoro-4-(2-fluoroethoxy)phenyl)-6-(4-fluorophenoxy)-3-((1-isopropylpiperidin-3-yl)methyl)quinazolin-4(3H)-one] | 0.33 nM | binding affinity with GHS-R1a, stated in words [1]: sub-nanomolar binding affinity
Cc1ccccc1-c1nc2ccc(C(=O)c3ccc(F)cc3)cc2c(=O)n1C[C@H]1CCCNC1 [Compound 19, (S)-6-(4-fluorobenzoyl)-3-(piperidin-3-ylmethyl)-2-(o-tolyl)quinazolin-4(3H)-one] | 4 nM | 
Cc1ccccc1-c1nc2ccc(C(=O)c3ccc(F)cc3)cc2c(=O)n1C[C@H]1CCCN(C(C)C)C1 [Compound 20, (S)-6-(4-fluorobenzoyl)-3-((1-isopropylpiperidin-3-yl)methyl)-2-(o-tolyl)quinazolin-4(3H)-one] | 3.8 nM | binding affinity with GHS-R1a, stated in words [1]: equivalent binding affinity to natural ghrelin
